Activity calls are given as the source filed them. The rule behind the calls is not given here.
Assays:
[1] = Inhibition of telomerase (unknown origin) incubated for 60 mins at 30 degC followed by 5 mins at 95 degC by TRAP assay; set-up: species or system Homo sapiens
Nucleic Acid [2] = assay: Binding affinity to double strand 5'-GGGAGGTTTCGC-3' and 5'-GCGAAACCTCCC-3' DNA (unknown origin) assessed as DNA intercalation at 0.5 to 6.75 uM by circular dichroism analysis in presence of Na+; assay type: nucleic-acid assay
[3] = Binding affinity to double strand 5'-GGGAGGTTTCGC-3' and 5'-GCGAAACCTCCC-3' DNA (unknown origin) assessed as change in melting temperature by spectrophotometry in presence of Na+
[4] = Binding affinity to poly (dA-dT)2 dsDNA (unknown origin) assessed as change in melting temperature at 1:0.05 DNA/ligand ratio by absorbance melting method in presence of Na+
[5] = Binding affinity to 5'-AGGG(TTAGGG)3-3' DNA (unknown origin) assessed as change in melting temperature by spectropolarimetry in presence of Na+
[6] = Binding affinity to double strand 5'-GGGAGGTTTCGC-3' and 5'-GCGAAACCTCCC-3' DNA (unknown origin) by Benesi-Hildebrand method in presence of Na+
[7] = Binding affinity to 5'-AGGG(TTAGGG)3-3' DNA (unknown origin) assessed as assessed as G-quadruplex formation at 2:1 DNA/ligand molar ratio by circular dichroism analysis in presence of KCl
Nucleic Acid [8] = assay: Binding affinity to double strand 5'-GGGAGGTTTCGC-3' and 5'-GCGAAACCTCCC-3' DNA (unknown origin) assessed as DNA intercalation at 0.75 to 11.25 uM by circular dichroism analysis in presence of K+; assay type: nucleic-acid assay
[9] = Binding affinity to 5'-AGGG(TTAGGG)3-3' DNA (unknown origin) by Benesi-Hildebrand method in presence of K+
[10] = Binding affinity to 5'-AGGG(TTAGGG)3-3' DNA (unknown origin) assessed as change in melting temperature by spectropolarimetry in presence of K+
Calf thymus DNA = assay: Binding affinity to calf thymus DNA assessed as DNA intercalation at 5 to 50 uM by circular dichroism analysis in presence of NaCl; assay type: nucleic-acid assay; details: Bos taurus
[11] = Binding affinity to poly (dA-dT)2 dsDNA (unknown origin) assessed as change in melting temperature at 1:0.3 DNA/ligand ratio by absorbance melting method in presence of Na+
Nucleic Acid [12] = assay: Binding affinity to double strand 5'-GGGAGGTTTCGC-3' and 5'-GCGAAACCTCCC-3' DNA (unknown origin) assessed as DNA intercalation at 0.5 to 6.75 uM by circular dichroism analysis in presence of K+; assay type: nucleic-acid assay
Nucleic Acid [13] = assay: Binding affinity to double strand 5'-GGGAGGTTTCGC-3' and 5'-GCGAAACCTCCC-3' DNA (unknown origin) assessed as DNA intercalation at 0.75 to 11.25 uM by circular dichroism analysis in presence of Na+; assay type: nucleic-acid assay
[14] = Binding affinity to double strand 5'-GGGAGGTTTCGC-3' and 5'-GCGAAACCTCCC-3' DNA (unknown origin) by Benesi-Hildebrand method in presence of K+
[15] = Binding affinity to 5'-AGGG(TTAGGG)3-3' DNA (unknown origin) by Benesi-Hildebrand method in presence of Na+
Escherichia coli [16] = assay: Binding affinity to Escherichia coli pUC19 DNA assessed as formation of supercoiled DNA at 1 to 5 uM after 1 hr by agarose gel electrophoresis
[17] = Stabilization of 5'-AGGG(TTAGGG)3-3' DNA (unknown origin) assessed as G-quadruplex formation at 1:0.3 to 1:4.5 DNA/ligand molar ratio by circular dichroism analysis in presence of NaCl
[18] = Stabilization of 5'-AGGG(TTAGGG)3-3' DNA (unknown origin) assessed as G-quadruplex formation at 1:0.3 to 1:4.5 DNA/ligand molar ratio by circular dichroism analysis in presence of KCl
Nucleic Acid [19] = assay: Binding affinity to poly (dA-dT)2 dsDNA (unknown origin) assessed as DNA intercalation at 5 to 50 uM by circular dichroism analysis in presence of NaCl; assay type: nucleic-acid assay
Escherichia coli [20] = assay: Binding affinity to Escherichia coli pUC19 DNA assessed as formation of supercoiled DNA at 0.4 to 2.4 uM after 1 hr by agarose gel electrophoresis
[21] = Binding affinity to poly (dA-dT)2 dsDNA (unknown origin) assessed as change in melting temperature at 1:0.1 DNA/ligand ratio by absorbance melting method in presence of Na+
[22] = Binding affinity to double strand 5'-GGGAGGTTTCGC-3' and 5'-GCGAAACCTCCC-3' DNA (unknown origin) assessed as change in melting temperature by spectrophotometry in presence of K+
Nucleic Acid [23] = assay: Binding affinity to poly (dG-dC)2 dsDNA (unknown origin) assessed as DNA intercalation at 5 to 50 uM by circular dichroism analysis in presence of NaCl; assay type: nucleic-acid assay
[24] = Binding affinity to poly (dA-dT)2 dsDNA (unknown origin) assessed as change in melting temperature at 1:0.15 DNA/ligand ratio by absorbance melting method in presence of Na+

Compound | EC50 [1] | Activity (Nucleic Acid [2]) | ΔTm [3] | ΔTm [4] | ΔTm [5] | Kb [6] | Activity [7] | Activity (Nucleic Acid [8]) | Kb [9] | ΔTm [10] | Activity (Calf thymus DNA) | ΔTm [11] | Activity (Nucleic Acid [12]) | Activity (Nucleic Acid [13]) | Kb [14] | Kb [15] | Activity (Escherichia coli [16]) | Activity [17] | Activity [18] | Activity (Nucleic Acid [19]) | also measured
CN(C)CCCN1C(=O)c2ccc3c4c(ccc(c24)C1=O)C(=O)N(CCCN(C)C)C3=O | 6 µM | Active | 5 °C | 2 °C | 1 °C | 1 ×10⁶ /M | Active | Active | 1.4 ×10⁶ /M | 6 °C | Active | 13 °C | Active | Active | 1 ×10⁶ /M | 0.7 ×10⁶ /M | Active | Active | Active | Active | Activity (Escherichia coli [20]): Active; ΔTm [21]: 4 °C; ΔTm [22]: 5 °C; Activity (Nucleic Acid [23]): Active; ΔTm [24]: 7 °C
O=C1NCCCN2CCN(CCCN3C(=O)c4ccc5c6c(ccc(c46)C3=O)C(=O)N(CCCN3CCN(CCCNC(=O)c4ccc1cc4)CC3)C5=O)CC2 | 0.35 µM | Active | 10 °C | 9 °C | 3 °C | 2.5 ×10⁶ /M | Active | Active | 3.7 ×10⁶ /M | 9 °C | Active | 24 °C | Active | Active | 2.6 ×10⁶ /M | 0.9 ×10⁶ /M | Active | Active | Active | Active | Activity (Escherichia coli [20]): Active; ΔTm [21]: 14 °C; ΔTm [22]: 10 °C; Activity (Nucleic Acid [23]): Active; ΔTm [24]: 18 °C

From ChEMBL document CHEMBL3259816, “Interactions of cyclic and non-cyclic naphthalene diimide derivatives with different nucleic acids” (Bioorg Med Chem, 2014)
